One test addresses T1, caspase-1 (Homo sapiens, UniProt P29466).
T1 sequence (P29466 120-297 limits assumed): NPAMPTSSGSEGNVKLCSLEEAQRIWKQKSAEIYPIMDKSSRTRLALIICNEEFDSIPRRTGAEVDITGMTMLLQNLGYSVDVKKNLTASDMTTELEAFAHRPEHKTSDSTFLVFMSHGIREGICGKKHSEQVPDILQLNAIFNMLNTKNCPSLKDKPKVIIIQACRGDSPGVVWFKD
T1 sequence (P29466 317-404 limits assumed): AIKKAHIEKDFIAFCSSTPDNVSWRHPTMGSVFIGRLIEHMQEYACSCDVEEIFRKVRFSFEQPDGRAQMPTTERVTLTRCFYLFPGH
As to the kind of experiment: Caspase catalytic activity IC50 determination, caspase-1. Format: biochemical. Particulars: 2.5 nM enzyme, 6.5 μM WEHD substrate, tested 26.1 nM to 66 μM.

Test [1] concerns the target T2, caspase-3 (Homo sapiens, UniProt P42574).
T2 sequence (P42574 29-175 limits assumed): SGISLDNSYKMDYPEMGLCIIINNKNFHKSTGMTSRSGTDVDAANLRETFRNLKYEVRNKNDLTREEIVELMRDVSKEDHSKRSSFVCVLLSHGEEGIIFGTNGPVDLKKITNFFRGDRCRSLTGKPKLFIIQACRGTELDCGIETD
T2 sequence (P42574 176-277 limits assumed): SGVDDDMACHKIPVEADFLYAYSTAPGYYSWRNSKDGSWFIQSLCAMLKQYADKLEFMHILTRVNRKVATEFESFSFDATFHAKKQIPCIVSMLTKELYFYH
As to the kind of experiment: Caspase catalytic activity IC50 determination, caspase-3. Format: biochemical. As to conditions: 200 nM enzyme, 3.3 μM DEVD substrate, tested 26.1 nM to 66 μM.

A further test deals with T3, caspase-4 (Homo sapiens, UniProt P49662).
T3 sequence (P49662 81-270 limits assumed): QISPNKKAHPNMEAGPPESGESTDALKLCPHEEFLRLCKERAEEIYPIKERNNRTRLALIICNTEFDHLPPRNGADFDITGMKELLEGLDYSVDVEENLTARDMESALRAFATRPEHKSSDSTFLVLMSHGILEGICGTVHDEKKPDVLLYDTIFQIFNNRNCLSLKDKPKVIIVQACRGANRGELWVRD
T3 sequence (P49662 290-377 limits assumed): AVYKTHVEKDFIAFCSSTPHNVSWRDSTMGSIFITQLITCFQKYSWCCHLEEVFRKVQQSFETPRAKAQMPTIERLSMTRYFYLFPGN
As to the kind of experiment: Caspase catalytic activity IC50 determination, caspase-4. Format: biochemical. As to conditions: 1 nM enzyme, 10 μM LEHD substrate, tested 26.1 nM to 66 μM.

Another test deals with T4, caspase-5 (Homo sapiens, UniProt P51878).
T4 sequence (P51878 137-327 limits assumed): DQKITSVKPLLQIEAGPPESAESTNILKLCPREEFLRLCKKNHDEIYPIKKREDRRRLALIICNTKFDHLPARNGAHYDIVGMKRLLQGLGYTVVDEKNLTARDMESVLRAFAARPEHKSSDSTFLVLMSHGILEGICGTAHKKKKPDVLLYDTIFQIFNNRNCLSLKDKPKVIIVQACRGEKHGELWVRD
T4 sequence (P51878 347-434 limits assumed): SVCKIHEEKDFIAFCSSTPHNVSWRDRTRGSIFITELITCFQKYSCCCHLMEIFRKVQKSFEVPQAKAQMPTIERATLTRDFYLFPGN
In words: Caspase catalytic activity IC50 determination, caspase-5. It is filed as biochemical. Particulars: 20 nM enzyme, 10 μM LEHD substrate, tested 26.1 nM to 66 μM.

Another test addresses T5, caspase-9 (Homo sapiens, UniProt P55211).
T5 sequence (P55211 1-315 limits assumed): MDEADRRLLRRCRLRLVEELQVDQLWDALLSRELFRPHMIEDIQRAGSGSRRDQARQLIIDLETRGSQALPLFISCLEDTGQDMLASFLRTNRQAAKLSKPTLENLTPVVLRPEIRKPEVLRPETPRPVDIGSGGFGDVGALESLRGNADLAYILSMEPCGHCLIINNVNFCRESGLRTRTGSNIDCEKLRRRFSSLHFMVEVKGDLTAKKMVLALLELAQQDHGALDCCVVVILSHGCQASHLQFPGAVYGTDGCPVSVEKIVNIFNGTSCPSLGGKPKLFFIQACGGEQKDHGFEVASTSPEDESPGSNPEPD
T5 sequence (P55211 331-416 limits assumed): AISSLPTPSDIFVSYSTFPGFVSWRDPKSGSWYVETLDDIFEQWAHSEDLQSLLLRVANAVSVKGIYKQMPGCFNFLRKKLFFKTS
In words: Caspase catalytic activity IC50 determination, caspase-9. As to conditions: 200 nM enzyme, 6.5 μM LEHD substrate, tested 26.1 nM to 66 μM. It is filed as biochemical.

Test [2] has as its target T2, caspase-3. As to the kind of experiment: Caspase-3 tryptophan fluorescence quenching. It is filed as binding.
Test [3] relates to caspases in HeLa and THP-1 cells. As to the kind of experiment: Caspase inhibition across cell culture assays. Format: cell-based, human. Particulars: NSAIDs up to 500 μM.

The structures appear in SMILES notation.

In the case of `CC(=O)Oc1ccccc1C(=O)O` [Aspirin], the IC50 entry against caspase-1, at caspase-3 [1], against caspase-4, on caspase-5 and on caspase-9 was “No activity” each time. In addition, at caspase-3 [2], binding was put at a Kd of 1290 ± 10 µM. Also, the “caspase inhibitory capability, rank order across cellular assays” value (“caspase inhibitory capability” for short) in test [3] was “ineffective”.

`O=C(O)CCC(=O)c1ccc(-c2ccccc2)cc1` [Fenbufen]: the “caspase inhibitory capability” value in test [3] is reported as “substantial inhibitory capabilities”.

For the compound `CC(C)Cc1ccc(C(C)C(=O)O)cc1` (stereo not shown) [Ibuprofen], the IC50 entry at caspase-1 is on record as “No activity”. For the same compound, the “caspase inhibitory capability” value in test [3] is given as “weak inhibitors”.

In turn, `CC(C(=O)O)c1ccc(N2Cc3ccccc3C2=O)cc1` (stereo not shown) [Indoprofen] gave a Kd on caspase-3 [2] of 30 ± 2 µM. The “caspase inhibitory capability” value in test [3] was “substantial inhibitory capabilities”.

`COc1ccc2cc([C@H](C)C(=O)O)ccc2c1` [Naproxen]: in test [3], the “caspase inhibitory capability” value was “weak inhibitors”.

For the origin of these results see publication PMC5357154 (Cell chemical biology, 2017).
